Measured values: patent US20160244728A1, “CULTURE METHOD FOR PLURIPOTENT STEM CELLS AND KIT AND MEDIUM FOR CULTURE OF PLURIPOTENT STEM CELLS USED THEREIN” (FUJIFILM Corporation, priority 2013, published 2016)

Tests used:
human iPS cells [1] = assay: Growth evaluation in Essential 8 medium with magnesium ascorbyl phosphate; format: cell-based; conditions: for number of growing cells depending on the concentration of magnesium ascorbyl phosphate (in words): Tables 10 to 13; for Number of cells after 3 days (%): n=3
Protocol: The growth of cells was evaluated in the same manner as in Reference example 5.
Magnesium ascorbyl phosphate was added to a medium. […] The samples were adsorbed onto a 96-well plate, and the iPS cells collected in the same manner as in <Cell adhesiveness evaluation 1> were seeded into the plate at a ratio of 1×10^4 cells/well and cultured for 3 days in a 5% CO2 incubator at 37° C. The number of cells after 3 days was measured in the same manner as in <Cell adhesiveness evaluation 1>. Furthermore, by using VTN-N (manufactured by Life Technologies) and Vitronectin-XF (manufactured by Primorigen Biosciences), the growth of the cells was evaluated in the same manner.
The results obtained from RCP-17 are shown in Table 10, the results obtained from Human Recombinant Laminin-511 are shown in Table 11, the results obtained from VTN-N (manufactured by Life Technologies) are shown in Table 12, and the results obtained from Vitronectin-XF (manufactured by Primorigen Biosciences) are shown in Table 13. In Tables 10 and 11, the number of cells is expressed as a relative value calculated by regarding the number of cells at the concentration of magnesium ascorbyl phosphate of 0.8 mmol/L as being 100. n=3.

human iPS cells [2] = assay: Cell adhesiveness evaluation 2 (synthetic polypeptides added to cells seeded on natural vitronectin); format: cell-based; conditions: 100 μM synthetic polypeptide
Protocol: The polypeptides shown in Table 7 were synthesized by an Fmoc solid-phase synthesis method. A surface onto which natural vitronectin was adsorbed at a concentration of 130 pmol/cm^2 was prepared, and then a cell suspension to which 100 μM of the aforementioned synthetic polypeptides were added was seeded into wells at a ratio of 30,000 cells/well. The number of adhesive cells 24 hours after seeding was calculated in the same manner as in <Cell adhesiveness evaluation 1>, and the results are shown in Table 7. In Table 7, the cell adhesion rate is expressed as a relative value calculated by regarding the cell adhesion rate obtained by using a culture solution not containing the synthetic polypeptides as being 100%. n=3.

[3] = Evaluation of adsorbability with respect to culture dish; format: physicochemical; conditions: FIG. 1
Protocol: Each of the polypeptides obtained as above was diluted with a predetermined buffer such that they could be added to wells at a predetermined final concentration of 0 pmol/cm^2 to 200 pmol/cm^2. Thereafter, each of the polypeptides was added in an amount of 64 μL to a plasma-treated 96-well plate made of polystyrene (Tissue Culture-Treated, Falcon). Each of the polypeptides was allowed to adsorb onto the plate by being incubated for 2 hours at 37° C., and then the wells were washed twice with PBS, thereby obtaining surfaces coated with each of the polypeptides of RCP-1 to RCP-16.
Among the surfaces coated with each of the polypeptides obtained as above, the surfaces coated with RCP-1 and RCP-11 to RCP-16 were applied with 64 μL of a borate buffer and 64 μL of 1 N NaOH, followed by incubation for 24 hours at 80° C. and 100% humidity. After the resultant was air-cooled, 75 μL of a borate buffer was added to each well, and 50 μL of a reaction solution obtained by mixing OPA (o-phthalaldehyde: Wako Pure Chemical Industries, Ltd./methanol solution (160 mg/ml)) with N-acetyl-L-cysteine (NAC: Wako Pure Chemical Industries, Ltd.)/borate buffer solution (2 mg/ml) at a ratio of 1:100 (mass ratio) was further added thereto. After incubation for 30 minutes at 40° C., the fluorescence intensity thereof was measured by using an Envision Multilabel Counter (PerkinElmer Inc.) (excitation 355 nm/fluorescence 486 nm). A calibration curve was separately prepared from each of the polypeptide solutions so as to calculate the amount of the polypeptide adsorbed. In FIG. 1, a black rhombus indicates RCP-1, a black square indicates RCP-11, a black triangle indicates RCP-12, a black circle indicates RCP-13, a white rhombus indicates RCP-14, a white square indicates RCP-15, and a white triangle indicates RCP-16.

human iPS cells [4] = assay: Evaluation of maintenance of undifferentiated state; format: cell-based
Protocol: iPS cells collected in the same manner as in <Cell adhesiveness evaluation 1> were suspended in TeSR2. The iPS cells were seeded into 6-well plate (Tissue culture-treated, Falcon), onto which each of the samples 1, 2, 5, 6, and 7 used in <Cell adhesiveness evaluation 1> was adsorbed in the same manner as in <Cell adhesiveness evaluation 1>, and cultured in a CO2 incubator at 37° C. Except for the day after the seeding, the medium was replaced every day. In the same method as described above, the cells were subcultured every six days. FIGS. 3A to 3E show forms of the iPS cells cultured on each of the samples.
After being cultured for 1 month under the conditions described above, the cells were immobilized using 4% paraformaldehyde and treated with 1% Triton-X/PBS so as to enhance the membrane permeability. After the cells were subjected to a blocking treatment using an Image IT Signal Enhancer (Invitrogen), an anti-human NANOG antibody (AF 1997, R&D Systems, Inc.), an Alexa Fluor 555 binding rabbit anti-goat IgG antibody (Invitrogen), and DAPI (Dojindo Molecular Technologies, Inc.) were added thereto for labeling, and the cells were imaged using a fluorescence microscope. FIGS. 4A to 4E show the fluorescence microscopic images.
FIGS. 3A and 4A show the iPS cells cultured on RCP-1; FIGS. 3B and 4B show the iPS cells cultured on RCP-11; FIGS. 3C and 4C show the iPS cells cultured on natural human vitronectin; FIGS. 3D and 4D show the iPS cells cultured on rLaminin-5; and FIGS. 3E and 4E show the iPS cells cultured on rLaminin-511. The scale bar in the images indicates 100 μm. In FIGS. 3A to 3E, the images on the left side are full images of the colony, and the images on the right side are magnified images. In FIGS. 4A to 4E, the images on the left side are images of the cells stained with DAPI, and the images on the right side are images of the cells stained with an anti-NANOG antibody. The scale bar in FIGS. 3 and 4 indicates 200 μm.

For “Laminin-511: recombinant laminin (Human Recombinant Laminin-511: BIOLAMINA AB), control”, the “number of growing cells depending on the concentration of magnesium ascorbyl phosphate (in words)” value (human iPS cells [1]) was “does not depend”, the “Number of cells after 3 days (%)” value (human iPS cells [1]; magnesium ascorbyl phosphate 0.2 mmol/L, added amount 20 μg/cm^3, Table 11, relative to 0.8 mmol/L = 100) was 61% and the “Number of cells after 3 days (%)” value (human iPS cells [1]; magnesium ascorbyl phosphate 0.5 mmol/L, added amount 20 μg/cm^3, Table 11, relative to 0.8 mmol/L = 100) was 79%. The “Number of cells after 3 days (%)” value (human iPS cells [1]; magnesium ascorbyl phosphate 0.8 mmol/L, added amount 20 μg/cm^3, Table 11, reference = 100) was 100%, the “Number of cells after 3 days (%)” value (human iPS cells [1]; magnesium ascorbyl phosphate 1.6 mmol/L, added amount 20 μg/cm^3, Table 11, relative to 0.8 mmol/L = 100) was 90% and the “Number of cells after 3 days (%)” value (human iPS cells [1]; magnesium ascorbyl phosphate 3.7 mmol/L, added amount 20 μg/cm^3, Table 11, relative to 0.8 mmol/L = 100) was 114%. For the same molecule, the “Number of cells after 3 days (%)” value (human iPS cells [1]; magnesium ascorbyl phosphate 9.1 mmol/L, added amount 20 μg/cm^3, Table 11, relative to 0.8 mmol/L = 100) was 100% and the “Number of cells after 3 days (%)” value (human iPS cells [1]; magnesium ascorbyl phosphate 18.1 mmol/L, added amount 20 μg/cm^3, Table 11, relative to 0.8 mmol/L = 100) was 112%.

In the case of CCTDYTAECKPQVTRGEVFT [Peptide-7], the “adhesion of cells to the natural vitronectin on addition of the peptide (in words)” value (“adhesion of cells” below) (human iPS cells [2]) is reported as “not hindered”.

For “DQESCKGRCTEGFNVDKKCQ [Peptide-1, polypeptide synthesized by an Fmoc solid-phase synthesis method]”, the “adhesion of cells” value (human iPS cells [2]) was “not hindered”.

With TAECKPQVTRGEVFTMPEDE [Peptide-8] the “adhesion of cells” value (human iPS cells [2]) was “not hindered”.

With “TAECKPQVTRGDVFTMPEDE [Peptide-6, polypeptide synthesized by an Fmoc solid-phase synthesis method]” the “adhesion of cells” value (human iPS cells [2]) was “significantly hindered”.

With “KGRCTEGFNVDKKCQCDELC [Peptide-2, polypeptide synthesized by an Fmoc solid-phase synthesis method]” the “adhesion of cells” value (human iPS cells [2]) was “not hindered”.

With “CCTDYTAECKPQVTRGDVFT [Peptide-5, polypeptide synthesized by an Fmoc solid-phase synthesis method]” the “adhesion of cells” value (human iPS cells [2]) was “significantly hindered”.

With “RCP-14: recombinant polypeptide, human vitronectin positions 1-55 (GPLGDQESCKGRCTEGFNVDKKCQCDELCSYYQSCCTDYTAECKPQVTRGDVFTMPEDE; Synthetic Peptide RCP-14)” the “amount adsorbed onto the plate relative to the polypeptide including SEQ ID NO: 3” value [3] was “about 1/4”.

With “EGFNVDKKCQCDELCSYYQS [Peptide-3, polypeptide synthesized by an Fmoc solid-phase synthesis method]” the “adhesion of cells” value (human iPS cells [2]) was “not hindered”.

With “DKKCQCDELCSYYQSCCTDY [Peptide-4, polypeptide synthesized by an Fmoc solid-phase synthesis method]” the “adhesion of cells” value (human iPS cells [2]) was “significantly hindered”.

B1: RCP-17: recombinant polypeptide, human vitronectin positions 1-55, 269-277, 295-341, 342-373, C274S (protein)
chain: MDQESCKGRCTEGFNVDKKCQCDELCSYYQSCCTDYTAECKPQVTRGDVFTMPEDESQEESEGSEDIFELLFWGRTSAGTRQPQFISRDWHGVPGQVDAAMAGRIYISGMAPRPSLAKKQRFRHRNRKGYRSQRGHSRGRNQN
modifications: Synthetic Peptide RCP-17
notes: recombinant polypeptide, human vitronectin positions 1-55, 269-277, 295-341, 342-373, C274S
With B1 the “number of growing cells depending on the concentration of magnesium ascorbyl phosphate (in words)” value (human iPS cells [1]) was “increases”, the “Number of cells after 3 days (%)” value (human iPS cells [1]; magnesium ascorbyl phosphate 0.2 mmol/L, added amount 100 μg/cm^3, 1×10^4 cells/well, relative to 0.8 mmol/L = 100) was 114% and the “Number of cells after 3 days (%)” value (human iPS cells [1]; magnesium ascorbyl phosphate 0.5 mmol/L, added amount 100 μg/cm^3, 1×10^4 cells/well, relative to 0.8 mmol/L = 100) was 98%. For the same molecule, the “Number of cells after 3 days (%)” value (human iPS cells [1]; magnesium ascorbyl phosphate 0.8 mmol/L, added amount 100 μg/cm^3, 1×10^4 cells/well, reference = 100) was 100%, the “Number of cells after 3 days (%)” value (human iPS cells [1]; magnesium ascorbyl phosphate 1.6 mmol/L, added amount 100 μg/cm^3, 1×10^4 cells/well, relative to 0.8 mmol/L = 100) was 145% and the “Number of cells after 3 days (%)” value (human iPS cells [1]; magnesium ascorbyl phosphate 3.7 mmol/L, added amount 100 μg/cm^3, 1×10^4 cells/well, relative to 0.8 mmol/L = 100) was 219%. For the same molecule, the “Number of cells after 3 days (%)” value (human iPS cells [1]; magnesium ascorbyl phosphate 9.1 mmol/L, added amount 100 μg/cm^3, 1×10^4 cells/well, relative to 0.8 mmol/L = 100) was 212%, the “Number of cells after 3 days (%)” value (human iPS cells [1]; magnesium ascorbyl phosphate 18.1 mmol/L, added amount 100 μg/cm^3, 1×10^4 cells/well, relative to 0.8 mmol/L = 100) was 204% and the “Number of cells after 3 days (%)” value (human iPS cells [1]; magnesium ascorbyl phosphate 36.0 mmol/L, added amount 100 μg/cm^3, 1×10^4 cells/well, relative to 0.8 mmol/L = 100) was 230%.

B2: Natural vitronectin: human vitronectin (extracted from human serum, BD Biosciences), control (protein, listed as Homo sapiens)
chain: DQESCKGRCTEGFNVDKKCQCDELCSYYQSCCTDYTAECKPQVTRGDVFTMPEDEYTVYDDGEEKNNATVHEQVGGPSLTSDLQAQSKGNPEQTPVLKPEEEAPAPEVGASKPEGIDSRPETLHPGRPQPPAEEELCSGKPFDAFTDLKNGSLFAFRGQYCYELDEKAVRPGYPKLIRDVWGIEGPIDAAFTRINCQGKTYLFKGSQYWRFEDGVLDPDYPRNISDGFDGIPDNVDAALALPAHSYSGRERVYFFKGKQYWEYQFQHQPSQEECEGSSLSAVFEHFAMMQRDSWEDIFELLFWGRTSAGTRQPQFISRDWHGVPGQVDAAMAGRIYISGMAPRPSLAKKQRFRHRNRKGYRSQRGHSRGRNQNSRRPSRATWLSLFSSEESNLGANNYDDYRMDWLVPATCEPIQSVFFFSGDKYYRVNLRTRRVDTVDPPYPRSIAQYWLGCPAPGHL
With B2 the “form of the iPS cell colony” value (human iPS cells [4]; FIGS. 3A to 3E, TeSR2, subcultured every six days) was “form specific to undifferentiated cells” and the “maintenance of the undifferentiated state (NANOG staining)” value (human iPS cells [4]; FIGS. 4A to 4E, after culture for 1 month) was “strongly expressed NANOG in the entirety of the colony”.
